For test [1], the target named is T1, Heat shock protein HSP90 (Homo sapiens) (UniProt P07900+P08238). The experiment in a line: Inhibition of Hsp90 in human MCF7 cells assessed as Her2 degradation at 20 to 40 uM after 24 hrs by Western blotting. In kind it is cell-based. In general terms: A western blot detects proteins with antibodies after separation by electrophoresis.
The target in test [2] is T1, Heat shock protein HSP90 (Homo sapiens). Briefly: Inhibition of Hsp90 in human MCF7 cells assessed as induction of Hsp70 expression at 20 to 40 uM after 24 hrs by Western blotting. In kind it is cell-based.
The next test deals with MCF7. The experiment in a line: Cytotoxicity against human MCF7 cells by SRB assay. The class given is functional, cell-based.
The target in test [3] is ATP-dependent molecular chaperone HSP82 (Saccharomyces cerevisiae S288c, UniProt P02829). The experiment in a line: Inhibition of yeast Hsp90 ATPase activity by ATPase assay using malachite green colorimetric method.

The source made the active and inactive calls. The calls are words filed in the database; no cut-off is given here.

From ChEMBL document CHEMBL1153052, “Identification of new Hsp90 inhibitors by structure-based virtual screening” (Bioorg Med Chem Lett, 2009) come the findings set out here.

The term IC50 denotes the concentration that gives 50% inhibition. Lower therefore signals higher potency.

Chain of ATP-dependent molecular chaperone HSP82 (P02829 whole entry): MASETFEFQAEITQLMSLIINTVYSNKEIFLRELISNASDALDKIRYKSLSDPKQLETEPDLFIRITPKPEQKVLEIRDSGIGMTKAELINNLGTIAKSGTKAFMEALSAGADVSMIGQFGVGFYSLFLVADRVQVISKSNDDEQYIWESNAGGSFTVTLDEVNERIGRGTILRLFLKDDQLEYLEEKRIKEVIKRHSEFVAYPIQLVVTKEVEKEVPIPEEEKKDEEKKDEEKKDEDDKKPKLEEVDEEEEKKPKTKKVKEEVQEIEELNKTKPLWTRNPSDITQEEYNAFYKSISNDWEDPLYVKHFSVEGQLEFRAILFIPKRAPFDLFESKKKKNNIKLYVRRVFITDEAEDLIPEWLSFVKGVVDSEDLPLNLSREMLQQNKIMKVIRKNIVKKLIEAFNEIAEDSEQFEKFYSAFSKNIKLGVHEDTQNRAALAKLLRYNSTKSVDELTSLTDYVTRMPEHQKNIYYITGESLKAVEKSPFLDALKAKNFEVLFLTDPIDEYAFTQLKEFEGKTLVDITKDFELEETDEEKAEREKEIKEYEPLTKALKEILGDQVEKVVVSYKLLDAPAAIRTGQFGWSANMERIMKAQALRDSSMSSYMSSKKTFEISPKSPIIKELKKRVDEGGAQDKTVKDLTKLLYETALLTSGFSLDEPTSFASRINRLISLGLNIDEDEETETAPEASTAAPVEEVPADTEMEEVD

For `O=C1NC(=O)N(c2ccccc2F)C(=O)/C1=C\c1cn(Cc2ccccc2)c2ccccc12`, the outcome in test [1] and in test [2] was Active. The half-maximal inhibitory concentration (IC50) stood at 18.1 µM in the test on MCF7 and 24.6 µM in test [3].
`O=C(CSc1nnc(-c2cccnc2)n1-c1ccccc1)NCc1ccccc1`: the result in test [1] was Active. The result in test [2] was inactive.
As for `CCOc1cc(/C=C2\C(=O)NC(=O)N(Cc3ccccc3)C2=O)ccc1O`, the outcome in test [2] was inactive.
`COC1=C2C[C@@H](C)C[C@H](OC)[C@H](O)[C@@H](C)/C=C(\C)[C@H](OC(N)=O)[C@@H](OC)/C=C\C=C(/C)C(=O)NC(=CC1=O)C2=O` [GELDANAMYCIN] gave an IC50 with MCF7 of 9.6 µM.
In the case of `Cc1cccc(N2C(=O)NC(=O)/C(=C/c3ccccc3OCC(=O)O)C2=O)c1`, the outcome in test [1] was Active. Moreover, the result in test [2] was inactive.
The matching figures for `COc1ccc(-c2cc(-c3nnc(S)n3-c3cccc4ccccc34)[nH]n2)cc1`: “Active” and “inactive”.
On to `O=C(CSc1nnc(-c2ccc3c(c2)OCO3)n1-c1ccccc1)c1ccccc1`, for which, in test [1], the outcome was Active. In test [2], the outcome was inactive. Also, the IC50 worked out at 44.6 µM with MCF7 and 15.4 µM in test [3].
